Laboratory results as given in patent US8084481B2, “Substituted arylimidazolone and triazolone as inhibitors of vasopressin receptors” (Bayer Pharma Aktiengesellschaft, priority 2006, dated 2011).

Legend:
human V2 receptor = target: T1, human V2 receptor (Homo sapiens, UniProt P30518); experiment: Cellular in vitro test for determination of the vasopressin receptor activity (aequorin luminescence, CHO cells), human V2; type: cell-based; settings: cell line transfected with the human V2 receptor, antagonism of [Arg8]-vasopressin, read-out: IC50 hV2
T1 construct: expressed in transfected cells; host or cells: CHO K1 (ATCC), constitutively expressing a modified aequorin and stably co-transfected with promiscuous G-alpha-16
Text: (§1) B-1. Cellular In Vitro Test for Determination of the Vasopressin Receptor Activity
(§2) The identification of agonists and antagonists of the V1a- and V2-vasopressin receptors in man and the rat and the quantification of the activity of the compounds according to the invention are effected by means of recombinant cell lines. These cells are originally derived from the ovarian epithelial cells of the hamster (Chinese Hamster Ovary, CHO K1, ATCC: American Type Culture Collection, Manassas, Va. 20108, USA). The test cell lines constitutively express a modified form of the calcium-sensitive photoprotein aequorin, which after reconstitution with the cofactor coelenterazine emits light on an increase in the free calcium concentrations [Rizzuto R, Simpson A W, Brini M, Pozzan T, Nature 358, 325-327 (1992)]. In addition, the cells are stably transfected with human or rat V1a- or V2 receptors. In the case of the Gs-coupled V2 receptors, the cells are stably transfected with a further gene which codes for the promiscuous Gα16-Protein [Amatruda T T, Steele D A, Slepak V Z, Simon M I, Proceedings of the National Academy of Science USA 88, 5587-5591 (1991)]. The resulting vasopressin receptor test cells react to stimulation of the recombinantly expressed vasopressin receptors with an intracellular release of calcium ions, which can be quantified by the resulting aequorin luminescence with a suitable luminometer [Milligan G, Marshall F, Rees S, Trends in Pharmacological Sciences 17, 235-237 (1996)].
(§3) On the day before the text, the cells are plated out in culture medium (DMEM, 10% FCS, 2 mM glutamine, 10 mM HEPES) in 384-well microtitre plates and kept in a cell incubator (96% atmospheric humidity, 5% v/v CO2, 37° C.). On the test day, the culture medium is replaced by a Tyrode solution (140 mM NaCl, 5 mM KCl, 1 mM MgCl2, 2 mM CaCl2, 20 mM glucose, 20 mM HEPES) which in addition contains the cofactor coelenterazine (50 μM), and the microtitre plate is then incubated for a further 3-4 hours. The test substances in various concentrations are placed beforehand in the wells of the microtitre plate for 10 to 20 minutes, before the agonist [Arg^8]-vasopressin is added and the resulting light signal immediately measured in the luminometer. The IC50 values are calculated by means of the computer program GraphPad PRISM (Version 3.02).

human V1a receptor = target: T2, human V1a receptor (Homo sapiens, UniProt P37288); experiment: Cellular in vitro test for determination of the vasopressin receptor activity (aequorin luminescence, CHO cells), human V1a; type: cell-based; settings: cell line transfected with the human V1a receptor, antagonism of [Arg8]-vasopressin, read-out: IC50 hV1a
T2 construct: expressed in transfected cells; host or cells: CHO K1 (ATCC), constitutively expressing a modified aequorin
Text: as §1, §2, §3

T2 sequence (P37288 whole entry): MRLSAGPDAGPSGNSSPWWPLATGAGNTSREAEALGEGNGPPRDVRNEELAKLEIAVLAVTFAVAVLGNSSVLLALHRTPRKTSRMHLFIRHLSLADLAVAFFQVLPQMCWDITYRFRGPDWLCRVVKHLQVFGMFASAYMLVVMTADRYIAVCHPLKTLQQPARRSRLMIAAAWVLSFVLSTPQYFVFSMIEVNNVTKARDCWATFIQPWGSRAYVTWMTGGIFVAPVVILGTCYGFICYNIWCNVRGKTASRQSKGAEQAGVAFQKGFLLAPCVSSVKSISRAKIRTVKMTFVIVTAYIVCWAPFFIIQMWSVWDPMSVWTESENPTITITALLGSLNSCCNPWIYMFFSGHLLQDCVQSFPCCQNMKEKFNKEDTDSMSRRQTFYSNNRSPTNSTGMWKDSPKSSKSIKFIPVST
T1 sequence (P30518 whole entry): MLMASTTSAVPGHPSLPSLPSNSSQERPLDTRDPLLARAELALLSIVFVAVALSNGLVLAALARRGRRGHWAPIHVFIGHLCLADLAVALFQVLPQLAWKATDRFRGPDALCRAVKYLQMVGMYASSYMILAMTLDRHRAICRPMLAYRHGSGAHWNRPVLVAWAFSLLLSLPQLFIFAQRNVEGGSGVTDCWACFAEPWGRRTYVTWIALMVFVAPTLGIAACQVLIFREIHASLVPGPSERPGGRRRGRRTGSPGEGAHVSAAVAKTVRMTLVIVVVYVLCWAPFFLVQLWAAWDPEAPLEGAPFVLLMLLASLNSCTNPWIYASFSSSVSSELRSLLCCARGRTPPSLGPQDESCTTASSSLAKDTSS

IC50 (human V2 receptor) [nM]	IC50 (human V1a receptor) [nM]	Structure (SMILES)
2	35	CC(C)(NC(=O)Cn1nc(-c2ccc(Cl)cc2)n(CC(=O)C(F)(F)F)c1=O)c1cccc(C(F)(F)F)c1 [Example 489, 2-[3-(4-chlorophenyl)-5-oxo-4-(3,3,3-trifluoro-2-oxopropyl)-4,5-dihydro-1H-1,2,4-triazol-1-yl]-N-{1-methyl-1-[3-(trifluoromethyl)phenyl]ethyl}-acetamide]
257	49	COCCn1c(-c2ccc(Cl)cc2)nn(CC(=O)NCC2(c3ccccc3F)CCCC2)c1=O [Example 494]
576	166	Cc1csc(-c2nn(CC(=O)NCc3cccc(C(F)(F)F)c3)c(=O)n2CC(C)C)c1Cl [Example 496, 2-[3-(3-chloro-4-methyl-2-thienyl)-4-isobutyl-5-oxo-4,5-dihydro-1H-1,2,4-triazol-1-yl]-N-[3-(trifluoromethyl)phenylmethyl]-acetamide]
221	25	O=C(Cn1cc(-c2ccc(Cl)s2)n(Cc2ccccc2F)c1=O)NCc1cccc(C(F)(F)F)c1 [Example 503]
336	5	O=C(Cn1cc(-c2ccc(Cl)cc2)n(CC2CC2)c1=O)NCCc1ccccc1C(F)(F)F [Example 508]
4	8	NC(=O)C(NC(=O)Cn1nc(-c2ccc(Cl)cc2)n(CC(O)C(F)(F)F)c1=O)c1cccc(C(F)(F)F)c1 (stereo not shown) [Example 509, 2-[3-(4-chlorophenyl)-5-oxo-4-(3,3,3-trifluoro-2-hydroxypropyl)-4,5-dihydro-1H-1,2,4-triazol-1-yl]-N-{2-amino-2-oxo-1-[3-(trifluoromethyl)phenyl]ethyl}-acetamide]
7	4	O=C(Cn1nc(-c2ccc(Cl)cc2)n(CC(O)C(F)(F)F)c1=O)NC(C(=O)NC1CC1)c1cccc(C(F)(F)F)c1 (stereo not shown) [Example 510, 2-([3-(4-chlorophenyl)-5-oxo-4-(3,3,3-trifluoro-2-hydroxypropyl)-4,5-dihydro-1H-1,2,4-triazol-1-yl]acetylamino)-N-cyclopropyl-2-[3-(trifluoromethyl)phenyl]-acetamide]
11	4	O=C(Cn1nc(-c2ccc(Cl)cc2)n(CC(O)C(F)(F)F)c1=O)NC(C(=O)N1CCOCC1)c1cccc(C(F)(F)F)c1 (stereo not shown) [Example 511, 2-[3-(4-chlorophenyl)-5-oxo-4-(3,3,3-trifluoro-2-hydroxypropyl)-4,5-dihydro-1H-1,2,4-triazol-1-yl]-N-{2-morpholin-4-yl-2-oxo-1-[3-(trifluoromethyl)phenyl]ethyl}-acetamide]

Continued, molecule first:

Structure (SMILES)	IC50 (human V2 receptor) [nM]	IC50 (human V1a receptor) [nM]
COCCn1c(-c2ccc(Cl)cc2)nn(CC(=O)NC(C(=O)N(C)C)c2cccc(C(F)(F)F)c2)c1=O (stereo not shown) [Example 348]	217	4
O=C(Cn1nc(-c2ccc(Cl)cc2)n(CC(O)C(F)(F)F)c1=O)NCCc1ccccc1OC(F)(F)F (stereo not shown) [Example 359]	9	19
O=C(Cn1nc(-c2ccc(Cl)cc2)n(CC(O)C(F)(F)F)c1=O)NCC(F)(F)c1cccc(C(F)(F)F)c1 (stereo not shown) [Example 364]	8	22
CC(C)(NC(=O)Cn1nc(-c2ccc(Cl)cc2)n(CC(F)(F)F)c1=O)c1cccc(C(F)(F)F)c1 [Example 386]	23	611
CSc1ccccc1CNC(=O)Cn1nc(-c2ccc(Cl)cc2)n(Cc2ccccc2F)c1=O [Example 394, 2-[3-(4-chlorophenyl)-4-(2-fluorobenzyl)-5-oxo-4,5-dihydro-1H-1,2,4-triazol-1-yl]-N-[2-(methylthio)benzyl]-acetamide]	19	19
CC(=O)Cn1c(-c2ccc(Cl)cc2)nn(CC(=O)NCc2cccc(C(F)(F)F)c2)c1=O [Example 415]	26	870
C#CCn1c(-c2ccc(Cl)cc2)nn(CC(=O)NCCc2ccccc2C(F)(F)F)c1=O [Example 421]	88	32
C=C(C)Cn1c(-c2ccc(Cl)cc2)nn(CC(=O)NC(C)(C)c2cccc(C(F)(F)F)c2)c1=O [Example 423, 2-[3-(4-chlorophenyl)-4-(2-methylprop-2-en-1-yl)-5-oxo-4,5-dihydro-1H-1,2,4-triazol-1-yl]-N-1-methyl-1-[3-(trifluoromethyl)phenyl]ethyl-acetamide]	15	157
CC(C)(NC(=O)Cn1nc(-c2ccc(Cl)cc2)n(Cc2cccc(F)c2)c1=O)c1cccc(C(F)(F)F)c1 [Example 433, 2-[3-(4-chlorophenyl)-4-(3-fluorobenzyl)-5-oxo-4,5-dihydro-1H-1,2,4-triazol-1-yl]-N-1-methyl-1-[3-(trifluoromethyl)phenyl]ethyl-acetamide]	9	199
CCOC(=O)Cn1c(-c2ccc(Cl)cc2)nn(CC(=O)NCCc2ccccc2C(F)(F)F)c1=O [Example 439]	77	58
CCC(=O)Cn1c(-c2ccc(Cl)cc2)nn(CC(=O)NC(C)(C)c2cccc(C(F)(F)F)c2)c1=O [Example 443, 2-[3-(4-chlorophenyl)-5-oxo-4-(2-oxobutyl)-4,5-dihydro-1H-1,2,4-triazol-1-yl]-N-1-methyl-1-[3-(trifluoromethyl)phenyl]ethyl-acetamide]	23	93
C/C=C/n1c(-c2ccc(Cl)cc2)nn(CC(=O)NCc2cccc(C(F)(F)F)c2)c1=O [Example 457, 2-{3-(4-chlorophenyl)-5-oxo-4-[(1E)-prop-1-en-1-yl]-4,5-dihydro-1H-1,2,4-triazol-1-yl}-N-[3-(trifluoromethyl)benzyl]-acetamide]	29	43
CC(C)(NC(=O)Cn1nc(-c2ccc(Cl)cc2)n(CCN2CCOCC2)c1=O)c1cccc(C(F)(F)F)c1 [Example 462, 2-[3-(4-chlorophenyl)-4-(2-morpholin-4-ylethyl)-5-oxo-4,5-dihydro-1H-1,2,4-triazol-1-yl]-N-{1-methyl-1-[3-(trifluoromethyl)phenyl]ethyl}-acetamide]	46	373
CC(C)(NC(=O)Cn1nc(-c2ccc(Cl)cc2)n(CC(=O)O)c1=O)c1cccc(C(F)(F)F)c1 [Example 467, 3-(4-chlorophenyl)-1-[2-(1-methyl-1-[3-(trifluoromethyl)phenyl]ethylamino)-2-oxoethyl]-5-oxo-1,5-dihydro-4H-1,2,4-triazol-4-yl-acetic acid]	26	439
CC(C)(NC(=O)Cn1nc(-c2ccc(Cl)cc2)n(Cc2cccc(C(=O)O)c2)c1=O)c1cccc(C(F)(F)F)c1 [Example 471, 3-(3-(4-chlorophenyl)-1-[2-(1-methyl-1-[3-(trifluoromethyl)phenyl]ethylamino)-2-oxoethyl]-5-oxo-1,5-dihydro-4H-1,2,4-triazol-4-ylmethyl)-benzoic acid]	2	39
CN(C)C(=O)c1cccc(Cn2c(-c3ccc(Cl)cc3)nn(CC(=O)NC(C)(C)c3cccc(C(F)(F)F)c3)c2=O)c1 [Example 475, 3-(3-(4-chlorophenyl)-1-[2-(1-methyl-1-[3-(trifluoromethyl)phenyl]ethylamino)-2-oxoethyl]-5-oxo-1,5-dihydro-4H-1,2,4-triazol-4-ylmethyl)-N,N-dimethylbenzamide]	20	328
CC(C)(NC(=O)Cn1nc(-c2ccc(Cl)cc2)n(CC(N)=O)c1=O)c1cccc(C(F)(F)F)c1 [Example 476]	94	1230
CS(=O)(=O)c1ccccc1CNC(=O)Cn1nc(-c2ccc(Cl)cc2)n(Cc2ccccc2F)c1=O [Example 482, 2-[3-(4-chlorophenyl)-4-(2-fluorobenzyl)-5-oxo-4,5-dihydro-1H-1,2,4-triazol-1-yl]-N-[2-(methylsulphonyl)benzyl]-acetamide]	250	9
